Assay results published in patent US6518252B2, “Method of treating aquatic animals with an antimicrobial agent and chelating agent” (priority 2000, dated 2003).
Several values for one entry are separate records, joined by “and”; a condition that tells them apart may be missing. Identical values can stand only once.

Experiments:
[1] = system: surface ulcers of Koi; test: Treatment of Koi suffering from surface ulcers (Example 2); format: in vivo, Koi (Cyprinus carpio); conditions: antibiotics injected directly into the fish, before the bath treatment
Experimental: All fish were housed in a communal “hospital tank” before treatment and moved to an isolation tank after each treatment. The temperature of the bath was adjusted to that of the hospital tank temperature, 24° C., and adequate aeration was supplied to the treatment tank.

[2] = system: Ps. aeruginosa; test: Two-dimensional microtiter checkerboard, MIC and FIC of EDTA in 50 mM Tris and antibiotics; format: cell-based, Pseudomonas aeruginosa
Experimental: (§1) Sabath, L. D, Antimicrob. Agents and Chem. 210-217. (1967) and Sparks et al., Vet. Res. Comm. 18, 241-249 (1994), incorporated herein by reference in their entireties. […] Then 0.05 ml of an 18-hour old culture of a test organism, containing 10^6 colony-forming units (CFU) ml, were added to each well. Controls for the culture and media were included in each plate. Plates were covered and incubated at 37° C. for 18-24 hours. […] To generate isobolograms, FICs of the two test solutions were plotted individually on the x-axis and y-axis to determine the effect of combining the two test solutions on bacterial growth. A line that curves away from the zero point and the coordinates indicated antagonism. […] Sabath, L. D, Antimicrob. Agents and Chem. 210-217. (1967), and incorporated herein by reference in their entireties. A numerical score or Fractional Inhibitory Concentration (FIC) index was determined.

[3] = system: Staph. aureus; test: as above; format: cell-based, Staphylococcus aureus
Experimental: as §1

[4] = system: Ent. faecalis; test: as above; format: cell-based, Enterococcus faecalis
Experimental: as §1

[5] = system: Staphylococcus aureus; test: Antibiotic resistance profile; format: cell-based; conditions: Staphylococcus aureus test strain; note: key: R = resistant; I = intermediate; S = sensitive
[6] = system: Pseudomonas aeruginosa; test: Antibiotic resistance profile; format: cell-based; conditions: Pseudomonas aeruginosa test strain; note: key: R = resistant; I = intermediate; S = sensitive
[7] = system: Enterococcus faecalis; test: Antibiotic resistance profile; format: cell-based; conditions: Enterococcus faecalis test strain; note: key: R = resistant; I = intermediate; S = sensitive
[8] = system: Aeromonas caviae; test: MIC and FIC of EDTA in 50 mM Tris and neomycin, Aeromonas isolated from ulcerated fish; format: cell-based; conditions: A. caviae
Experimental: (§2) Sabath, L. D, Antimicrob. Agents and Chem. 210-217. (1967) and Sparks et al., Vet. Res. Comm. 18, 241-249 (1994), incorporated herein by reference in their entireties.
(§3) Then 0.05 ml of an 18-hour old culture of a test organism, containing 10^6 colony-forming units (CFU) ml, were added to each well. Controls for the culture and media were included in each plate. Plates were covered and incubated at 37° C. for 18-24 hours.
(§4) To generate isobolograms, FICs of the two test solutions were plotted individually on the x-axis and y-axis to determine the effect of combining the two test solutions on bacterial growth. A line that curves away from the zero point and the coordinates indicated antagonism. […] Sabath, L. D, Antimicrob. Agents and Chem. 210-217. (1967), and incorporated herein by reference in their entireties.
(§5) A numerical score or Fractional Inhibitory Concentration (FIC) index was determined. The FIC index is equal to the sum of the values of FIC for the individual drugs: [formula]
(§6) An FIC index greater than 1.0 indicated an antagonistic interaction, an FIC index of 1.0 indicated addition, and an FIC index of less than or equal to 0.5 indicated synergism between the two test agents.

[9] = system: Aeromonas sobria; test: as above; format: cell-based; conditions: A. sobria
Experimental: as §2, §3, §4, §5, §6

[10] = system: Staphylococcus aureus; test: Minimal Bactericidal Concentration (MBC), EDTA and neomycin in 50 mM Tris; format: cell-based
[11] = system: Pseudomonas aeruginosa; test: as above; format: cell-based
[12] = system: Enterococcus faecalis; test: as above; format: cell-based
[13] = system: Aeromonas hydrophila; test: MIC and FIC of EDTA in 50 mM Tris and neomycin, Aeromonas isolated from ulcerated fish; format: cell-based; conditions: A. hydrophila
Experimental: as §2, §3, §4, §5, §6

[14] = system: Bacillus sp.; test: MIC of commercial chemical disinfectants or EDTA-Tris; format: cell-based; conditions: 1 x stock: EDTA-Tris 5 mM EDTA + 50 mM Tris-HCl, Glutracide 1:200, Magnaphen-100 1:400, BioSentry 904 1:256, Synergize 1:256, hydrogen peroxide 3%
[15] = system: Staph. aureus; test: MIC and FIC of chemical disinfectants and EDTA-Tris; format: cell-based, Staphylococcus aureus
Experimental: as §5, §6

[16] = system: Ps. aeruginosa; test: as above; format: cell-based, Pseudomonas aeruginosa
Experimental: as §5, §6

[17] = system: P. mirabilis; test: as above; format: cell-based, Proteus mirabilis
Experimental: as §5, §6

[18] = system: E. coli; test: MIC of commercial chemical disinfectants or EDTA-Tris; format: cell-based; conditions: 1 x stock solutions as in footnote of Table 5
[19] = system: S. enteritidis; test: MIC and FIC of chemical disinfectants and EDTA-Tris; format: cell-based
Experimental: as §5, §6

[20] = system: S. typhimurium 6578 (parent strain); test: as above; format: cell-based
Experimental: as §5, §6

[21] = system: S. typhimurium Avian (avian strain); test: as above; format: cell-based
Experimental: as §5, §6

[22] = system: S. typhimurium DT104 (multiple antibiotic resistant strain); test: as above; format: cell-based
Experimental: as §5, §6

[23] = system: S. typhimurium TRC1 (mar mutant); format: cell-based
Experimental: as §5, §6

[24] = system: B subtilis; test: FIC of chemical disinfectants and EDTA-Tris; format: cell-based; conditions: chemical disinfectant and EDTA-Tris
Experimental: as §5, §6

[25] = system: E. coli Av; test: FIC of chemical disinfectants and EDTA-Tris; format: cell-based; conditions: chemical disinfectant and EDTA-Tris
Experimental: as §5, §6

[26] = system: E. coli V-1; test: FIC of chemical disinfectants and EDTA-Tris; format: cell-based; conditions: chemical disinfectant and EDTA-Tris
Experimental: as §5, §6

[27] = system: Gram-negative bacteria; test: EDTA-Tris disinfectant combinations, summary; format: cell-based; conditions: most of the Gram-negative bacteria
Experimental: as §5, §6
Fractional inhibitory concentrations for EDTA-Tris disinfectant combinations (synergistic, additive, or antagonistic reactions) were determined for the test organisms. […]

[28] = system: Gram-positive organisms; test: EDTA-Tris disinfectant combinations, summary; format: cell-based
Experimental: as §5, §6

[29] = 1 x stock solutions as in footnote of Table 5
[30] = chemical disinfectant and EDTA-Tris
[31] = 1 x stock solutions as in footnote of Table 6

C[C@H]1[C@H](NC(=O)/C(=N\OC(C)(C)C(=O)O)c2csc(N)n2)C(=O)N1S(=O)(=O)O [Azactam]
Healing of visible ulcers [1]: failed to heal visible ulcers

CCN1CCN(c2cc3c(cc2F)c(=O)c(C(=O)O)cn3C2CC2)CC1 [Baytril]
Healing of visible ulcers [1]: failed to heal visible ulcers

NCC[C@H](O)C(=O)N[C@@H]1C[C@H](N)[C@@H](O[C@H]2O[C@H](CN)[C@@H](O)[C@H](O)[C@H]2O)[C@H](O)[C@H]1O[C@H]1O[C@H](CO)[C@@H](O)[C@H](N)[C@H]1O [Amikacin, amikacin, reference compound]
MIC, antibiotic individually administered ([2]; Ps. aeruginosa, alone): 1 µg/mL
MIC, antibiotic individually administered ([3]; Staph. aureus, alone): 120 µg/mL
MIC, antibiotic individually administered ([4]; Ent. faecalis, alone): 2000 µg/mL
Healing of visible ulcers [1]: failed to heal visible ulcers

CN[C@H](CC(C)C)C(=O)N[C@H]1C(=O)N[C@@H](CC(N)=O)C(=O)N[C@H]2C(=O)N[C@H]3C(=O)N[C@H](C(=O)N[C@H](C(=O)O)c4cc(O)cc(O)c4-c4cc3ccc4O)[C@H](O)c3ccc(c(Cl)c3)Oc3cc2cc(c3O[C@@H]2O[C@H](CO)[C@@H](O)[C@H](O)[C@H]2O[C@H]2C[C@](C)(N)[C@H](O)[C@H](C)O2)Oc2ccc(cc2Cl)[C@H]1O [Va, vancomycin]
Antibiotic resistance profile [5]: S
Antibiotic resistance profile [6]: R
Antibiotic resistance profile [7]: R

O=C(O)CN(CCN(CC(=O)O)CC(=O)O)CC(=O)O [EDTA, ethylenediaminetetracetic acid]
MIC, individually administered EDTA ([2]; Ps. aeruginosa, EDTA in 50 mM Tris, alone): 1250 µM
MIC ([2]; Pseudomonas aeruginosa, read-out: MIC, individually administered EDTA): 1250 µM
MIC, individually administered EDTA ([3]; Staph. aureus, EDTA in 50 mM Tris, alone): 1000 µM
MIC ([3]; Staphylococcus aureus, read-out: MIC, individually administered EDTA): 1000 µM
MIC, individually administered EDTA ([4]; Ent. faecalis, EDTA in 50 mM Tris, alone): 15630 µM
MIC ([4]; Enterococcus faecalis, read-out: MIC, individually administered EDTA): 15600 µM
MIC, EDTA in 50 mM Tris alone [8]: <0.49
MIC, EDTA in 50 mM Tris alone [9]: 15.6

CN(C)[C@@H]1C(O)=C(C(N)=O)C(=O)[C@@]2(O)C(O)=C3C(=O)c4c(O)cccc4[C@@](C)(O)[C@H]3[C@H](O)[C@@H]12 [Oxytetracycline, oxytetracycline, reference compound]
MIC, antibiotic individually administered ([2]; Ps. aeruginosa, alone): 3 µg/mL
MIC, antibiotic individually administered ([3]; Staph. aureus, alone): 0.1 µg/mL
MIC, antibiotic individually administered ([4]; Ent. faecalis, alone): 50 µg/mL

gentamicin [Gm]
Antibiotic resistance profile [5]: S
Antibiotic resistance profile [6]: I
Antibiotic resistance profile [7]: R

CC1(C)S[C@@H]2[C@H](NC(=O)[C@H](N)c3ccccc3)C(=O)N2[C@H]1C(=O)O [Ampicillin, ampicillin, reference compound]
MIC, antibiotic individually administered ([2]; Ps. aeruginosa, alone): 490 µg/mL
MIC, antibiotic individually administered ([3]; Staph. aureus, alone): 240 µg/mL
MIC, antibiotic individually administered ([4]; Ent. faecalis, alone): 1 µg/mL

neomycin [reference compound]
Antibiotic resistance profile [5]: R
Antibiotic resistance profile [6]: R
Antibiotic resistance profile [7]: R
MIC, antibiotic individually administered ([2]; Ps. aeruginosa, alone): 1000 µg/mL
MIC, antibiotic individually administered ([3]; Staph. aureus, alone): 3130 µg/mL
MIC, antibiotic individually administered ([4]; Ent. faecalis, alone): 3130 µg/mL
Decrease of MBC value when combined compared to individually administered ([10]; Staph. aureus, EDTA and neomycin combined): about 50% and 50%
MBC, neomycin co-administered ([10]; Staphylococcus aureus, co-administered with EDTA in 50 mM Tris): 1560 µg/mL
MBC, neomycin individually administered ([10]; Staphylococcus aureus, in 50 mM Tris): 3130 µg/mL
Decrease of MBC value when combined compared to individually administered ([11]; Ps. aeruginosa, EDTA and neomycin combined): 99.2%
MBC, neomycin co-administered ([11]; Pseudomonas aeruginosa, co-administered with EDTA in 50 mM Tris): 40 µg/mL
MBC, neomycin individually administered ([11]; Pseudomonas aeruginosa, in 50 mM Tris): 5000 µg/mL
Decrease of MBC value when combined compared to individually administered ([12]; Ent. faecalis, EDTA and neomycin combined): 75%
MBC, neomycin co-administered ([12]; Enterococcus faecalis, co-administered with EDTA in 50 mM Tris): 6250 µg/mL
MBC, neomycin individually administered ([12]; Enterococcus faecalis, in 50 mM Tris): 25000 µg/mL
MIC, neomycin alone [8]: 12.5 µg/mL
MIC, neomycin alone [13]: 200 µg/mL
MIC, neomycin alone [9]: 12.5 µg/mL

O=C(N[C@H](CO)[C@H](O)c1ccc([N+](=O)[O-])cc1)C(Cl)Cl [Chloramphenicol, chloramphenicol, reference compound]
MIC, antibiotic individually administered ([3]; Staph. aureus, alone): 390 µg/mL
MIC, antibiotic individually administered ([4]; Ent. faecalis, alone): 400 µg/mL

OO [Hydrogen peroxide]
MIC [14]: 0.05 dilution of stock solution
MIC [15, 29]: 0.02 dilution of stock solution
FIC [15, 30]: 1.48
Type of reaction (FIC class) [15, 30]: B (Antagonistic reaction (FIC > 1.0))
MIC [16, 29]: 0.09 dilution of stock solution
FIC [16, 30]: 0.37
Type of reaction (FIC class) [16, 30]: C (Synergistic reaction (FIC < 0.5))
MIC [17, 29]: 0.19 dilution of stock solution
FIC [17, 30]: 0.37
Type of reaction (FIC class) [17, 30]: C (Synergistic reaction (FIC < 0.5))
MIC [18]: 0.12 dilution of stock solution
MIC [19, 31]: 0.005 dilution of stock solution
FIC [19, 30]: 0.38
Type of reaction (FIC class) [19, 30]: C (Synergistic reaction (FIC < 0.5))
MIC [20, 31]: 0.005 dilution of stock solution
FIC [20, 30]: 0.5
Type of reaction (FIC class) [20, 30]: D (Synergistic reaction (FIC <: 0.5))
MIC [21, 31]: 0.005 dilution of stock solution
FIC [21, 30]: 0.63
Type of reaction (FIC class) [21, 30]: C (Additive reaction (FIC :> 0.5 to < 1.0))
MIC [22, 31]: 0.005 dilution of stock solution
FIC [22, 30]: 0.75
Type of reaction (FIC class) [22, 30]: C (Additive reaction (FIC :> 0.5 to < 1.0))
MIC [23, 31]: 0.005 dilution of stock solution
FIC [23, 30]: 0.5
Type of reaction (FIC class) [23, 30]: D (Synergistic reaction (FIC <: 0.5))
FIC [24]: 1.0
Type of reaction (FIC class) [24]: B (Additive reaction (FIC > 0.5 to < 1.0))
FIC [25]: 0.50
Type of reaction (FIC class) [25]: A (Synergistic reaction (FIC ˜ 0.5))
FIC [26]: 0.53
Type of reaction (FIC class) [26]: C (Additive reaction (FIC > 0.5 to < 1.0))
Effect of EDTA-Tris on the antimicrobial effect of the disinfectant [27]: potentiated (synergistic or additive)
Effect of EDTA-Tris on the antimicrobial effect of the disinfectant [28]: did not react uniformly
